These results are taken from PMC11979947, “Modeling Krebs cycle from liver, heart and hepatoma mitochondria, supported Complex I as target for specific inhibition of cancer cell proliferation” (Frontiers in Oncology, 2025).

Like-named read-outs stand apart in the source and are kept apart here.

In assay [1] the test system is H9c2 heart myoblast cells. Description: MTT cell proliferation assay, H9c2. To be noted: read-out: IC50 on proliferation. The format is cell-based, rat. As to the method: (§1) Human cervix cancer HeLa and SiHa, human prostate cancer PC3, human colon cancer colo-205, and rat heart myoblast H9c2 cells (CRL-1446, ATCC, Manassas, VA, USA) were cultured in DMEM medium, while human breast cancer MCF7 cells were cultivated in MEM medium. Human breast epithelial MCF-10A cells (CRL-10317, ATCC, Manassas, VA, USA) were cultivated in F-12/DMEM medium. All media were supplemented with 25 mM glucose, 10% fetal bovine serum (Biowest, Riverside, MO, USA) and 10,000 U streptomycin/penicillin/mL under an atmosphere of 5% CO2 and 95% air at 37°C until 80-90% confluence.
(§2) The cell lines (20 × 10^3 cells/well) were grown in 96-well plates containing Dulbecco’s Modified Eagle’s Medium (DMEM) (Sigma-Aldrich, St Louis, MO, USA) for 24 h. Afterward, the cells were exposed to rotenone (1 nM to 50 µM) or malonate (0.1µM to 100 mM) for 24 h. Drug effects on cell proliferation were determined by using the 3-(4,5-dimethyl-thiazol-2-yl)-2,5-diphenyltetrazolium bromide (MTT) (Sigma-Aldrich, St Louis, MO, USA) assay. Plates were incubated at 37°C for 3 h; after, the medium was discarded, and the formazan crystals were dissolved with 100 µL DMSO. After 5 min incubation at 37°C, the absorbance was measured at λ 595 nm ([34]).
A general note: Formazan colour is commonly taken as a measure of viable cells.

Assay [2] concerns MCF10A breast non-cancer cells. The experiment in a line: MTT cell proliferation assay, MCF10A. In kind it is cell-based, human. To be noted: for IC50: read-out: IC50 on proliferation. The protocol: as §1, §2
A further assay deals with HeLa cervix cancer cells. The experiment in a line: MTT cell proliferation assay, HeLa. In kind it is cell-based, human. To be noted: read-out: IC50 on proliferation. The protocol: as §1, §2
Assay [3] has as its system COLO-205 colon cancer cells. The experiment in a line: MTT cell proliferation assay, COLO-205. In kind it is cell-based, human. Particulars: read-out: IC50 on proliferation. The protocol:
as §1, §2

Assay [4] concerns PC3 prostate cancer cells. Description: MTT cell proliferation assay, PC3. In kind it is cell-based, human. To be noted: read-out: IC50 on proliferation. The protocol:
as §1, §2

The next assay concerns MCF7 breast cancer cells. The experiment in a line: MTT cell proliferation assay, MCF7. To be noted: read-out: IC50 on proliferation. In kind it is cell-based, human. As to the method: as §1, §2
In another assay the test system is SiHa cervix cancer cells. The experiment in a line: MTT cell proliferation assay, SiHa. In kind it is cell-based. Particulars: Homo sapiens, 24 h, read-out: IC50 on proliferation. The protocol: as §1, §2

For `O=C(O)CC(=O)O` [Malonate, malonate], the IC50 in assay [1] (H9c2, 24 h treatment, MTT) came out at 25000 ± 5000 µM; in assay [2] (MCF10A, 24 h treatment, MTT), 43000 ± 9000 µM; in the assay on HeLa cervix cancer cells (24 h treatment, MTT) it was 27000 ± 5000 µM; in assay [3] (COLO-205, 24 h treatment, MTT) it was 32000 ± 3000 µM; in assay [4] (PC3, 24 h treatment, MTT) it was 40000 ± 2000 µM; in the assay on MCF7 breast cancer cells (MCF7, 24 h treatment, MTT), 41000 ± 1000 µM.
In the case of `C=C(C)[C@H]1Cc2c(ccc3c2O[C@@H]2COc4cc(OC)c(OC)cc4[C@@H]2C3=O)O1` [Rotenone, rotenone], the IC50 was 34 ± 10 µM in assay [1] (Rattus norvegicus, H9c2, 24 h); 18 ± 3 µM with SiHa cervix cancer cells; > 50 µM in assay [2] (Homo sapiens, MCF-10A, 24 h); 17 ± 5 µM in the assay on HeLa cervix cancer cells (Homo sapiens, 24 h); 37 ± 9 µM in assay [3] (Homo sapiens, COLO 205, 24 h); 13 ± 1 µM in assay [4] (Homo sapiens, 24 h). For the same compound, the IC50 with MCF7 breast cancer cells (Homo sapiens, MCF7, 24 h) was found to be 0.15 ± 0.09 µM. For the same compound, the Effect on proliferation result in assay [2] (MCF10A, 50 µM, 24 h of treatment) is recorded as “not affected”.
